Molecular target: fat mass and obesity-associated protein (FTO) (Homo sapiens, UniProt Q9C0B1)
Experiment: SPR (Biacore T200); also thermal shift, CETSA, cell-free m6A demethylase assay
Assay type: binding

Chain of fat mass and obesity-associated protein (FTO) (Q9C0B1 whole entry): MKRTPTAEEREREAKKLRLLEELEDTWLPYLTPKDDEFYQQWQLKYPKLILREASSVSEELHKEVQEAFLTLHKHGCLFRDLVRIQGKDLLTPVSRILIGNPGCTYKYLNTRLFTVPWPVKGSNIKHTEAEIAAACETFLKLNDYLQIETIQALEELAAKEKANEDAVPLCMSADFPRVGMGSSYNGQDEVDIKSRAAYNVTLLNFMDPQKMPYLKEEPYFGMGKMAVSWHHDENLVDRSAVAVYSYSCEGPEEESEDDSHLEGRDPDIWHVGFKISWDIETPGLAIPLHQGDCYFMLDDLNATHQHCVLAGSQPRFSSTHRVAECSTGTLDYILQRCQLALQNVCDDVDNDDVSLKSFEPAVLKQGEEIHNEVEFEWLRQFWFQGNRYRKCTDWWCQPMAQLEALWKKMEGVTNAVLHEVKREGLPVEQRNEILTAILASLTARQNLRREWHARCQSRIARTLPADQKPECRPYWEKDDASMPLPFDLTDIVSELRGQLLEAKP

Kd: 3.63 µM
SMILES: C/C(=C\C(=O)OCCCCCCCCC(=O)O)C[C@@H]1OC[C@H](C[C@@H]2O[C@H]2[C@@H](C)[C@H](C)O)[C@@H](O)[C@H]1O [Mupirocin]
